These results are taken from the OPERA property sets (Mansouri et al. 2018).

SMILES strings stand for the structures.

Take `O=C1CC2(CCCC2)C(=O)N1O`: the logP was -0.26.
Molecule `CCC(C(=O)OCc1ccccc1C)C(CO)Cc1cncn1C` (configuration not stated) came in with a logP of 2.42.
For `Nc1ccc(C(=O)O)c(O)c1`, the logP stood at 0.89.
On to `NC(=O)c1cc2ccccc2[nH]1`, for which the logP is 1.61.
In turn, `OC(Cn1ccnc1)(c1cccc(Br)c1)c1ccc(F)cc1F` (configuration not stated) gave a logP of 3.6.
The result for `Clc1ccc(C(c2ccc(Cl)cc2)C(Cl)Cl)cc1` reads 6.02.
For `C=C[C@H]1CN2CCC1C[C@@H]2[C@@H](O)c1ccnc2ccccc12` (some centres not stated) the value was 2.68.
For `CC(=O)N1CCCC1=O` the value was -0.05; for `CC(C(=O)CCN(C)C)N1C(=O)C2CC=CCC2C1=O` (configuration not stated), 0.77; for `Cc1ccc2c(c1)C1CN(C)CCC1N2C(=O)C=Cc1ccccc1` (configuration not stated), 3.49.
`Oc1c(Cl)cc(Cl)c(Cl)c1O` displayed a logP of 3.6.
Molecule `COC(=O)c1ccccc1O` yielded a logP of 2.55.
For `Nc1cccc(C(=O)O)c1` the value was 0.65; for `NS(=O)(=O)c1cc2c(cc1Cl)NC(C(Cl)(Cl)Cl)NS2(=O)=O` (configuration not stated), 0.82; for `Nc1ccc(C(=O)O)c(N)c1`, -0.31.
As for `N=C(N)N1CCc2ccccc2C1`, the logP worked out at 0.75.
The result for `N#Cc1ccccc1OCC(O)CNCCNC(=O)Cc1ccc(O)cc1` (configuration not stated) reads 0.92.
For `Nc1cc(Cl)c(Cl)c(Cl)c1Cl` the value was 4.27; for `Oc1cc(Cl)c(Cl)c(Cl)c1O`, 3.71.
For `CNC(=O)NC(=O)C(C)(C(=O)OC)C1C=CCCC1` (configuration not stated), the logP is 1.75.
Take `Nc1ncn(C2OC(CO)C(O)C2O)c(=O)n1` (configuration not stated): the logP is -2.17.
For `NCC(O)c1ccc(O)cc1` (configuration not stated) the value was -0.9; for `O=C(O)Cc1ccc(C2CCCCC2)cc1`, 3.91.
Take `CCC(C(=O)OC(C)c1ccccc1)C(CO)Cc1cncn1C` (configuration not stated): the logP was 2.23.
The result for `NC(=O)c1csc([C@@H]2O[C@H](CO)[C@@H](O)[C@H]2O)n1` reads -1.73; that for `NC(=O)Nc1ccc(C(=O)O)cc1`, 0.73.
The result for `O=C(Nc1ccn(C2CC(O)C(CO)O2)c(=O)n1)c1ccccc1` (configuration not stated) reads 0.67; that for `CCC(CC)(C(=O)NC(N)=O)C(=O)OCC(=O)OC`, 0.99.
For `CCNC(=O)CCn1ccc(=O)c(O)c1C` the value was -0.82; for `CCCCC(NC(Cc1ccccc1)C(=O)N1CCC(OCOC)CC1)C(=O)NC(CC1CCCCC1)C(O)CC(C(=O)NCCCN1CCOCC1)C(C)C` (configuration not stated), 4.5.
Regarding `CN(C)CCN1C(=O)c2ccccc2Nc2cc(Cl)ccc21`, the logP is 3.73.
The result for `CC(C)(C)C(COc1ccc(-c2ccccc2)cc1)OC(=O)n1ccnc1` (configuration not stated) reads 4.56; that for `CCOc1ccc(OCC(OC(=S)n2ccnc2)C(C)(C)C)cc1` (configuration not stated), 4.58; that for `COc1cccc(C2C(=O)c3ccccc3C2=O)c1`, 2.88.
The result for `CC(=O)NC1=NC(=O)C(=Cc2ccc([N+](=O)[O-])o2)S1` reads 1.03; that for `Clc1ccncc1`, 1.28.
`CCOc1cccc(-c2nnc(C)n(NC)c2=O)c1` showed a logP of 1.91.
With `CC(=O)C1CCC2C3CC(C)C4=CC(=O)CCC4(C)C3C(=O)CC12C` (configuration not stated), the logP was found to be 2.75.
`CC(C(O)c1ccccc1)N(C)C` (configuration not stated): the log partition coefficient (logP) came out at 1.7.
The molecule `Cc1ccc(C(=O)CCN2CCCCC2)c(C)c1` had a logP of 3.71.
In turn, `O=c1ccnc2n1CCCC2` came in with a log partition coefficient (logP) of -0.14.
The result for `Cc1cccc2nc3n(c(=O)c12)CCC3` reads 1.59.
As to `CC(=O)c1ccc2cc(C(C)C(=O)OCC(N)=O)ccc2c1` (configuration not stated), the logP stood at 2.06.
The result for `OC(Cn1ccnc1)(c1ccc(F)cc1)c1ccc(-c2ccncc2)cc1` (configuration not stated) reads 2.47; that for `COc1cccc2c1C(=O)c1c(O)c3c(c(O)c1C2=O)CC(O)(C(C)=O)CC3OC1CC(NC(=O)CN(C)C)C(O)C(C)O1` (configuration not stated), 1.26.
The result for `CC1CC2CC=CCC2(N)c2ccccc21` (configuration not stated) reads 3.4; that for `CC1c2cccc(O)c2C(=O)C2=C(O)C3(O)C(=O)C(C(N)=O)=C(O)C(N(C)C)C3C(O)C21` (configuration not stated), -0.02; that for `CCOP(=O)(OCC)SCS(=O)C(C)(C)C` (configuration not stated), 2.66.
For `CNC(=O)NC(=O)C(C)(C(=O)OCOC)C1=CCCCC1` (configuration not stated) the value was 1.8.
On to `COc1cc(S(C)=O)ccc1-c1nc2ncc(N)cc2[nH]1` (configuration not stated), for which the logP was 0.33.
For the molecule `Nc1ccn(C2OC(CO)CC2F)c(=O)n1` (configuration not stated), the logP is -1.18.
The result for `CCOCCOCCOP(=O)(N1CC1)N1CC1` reads 0.1; that for `CC(=O)Nc1nc(NC(O)CC(O)CO)c(Cl)nc1[N+](=O)[O-]` (configuration not stated), -0.66.
Turning to `CCCCCCCCCCCCOC(=O)N(C)SN(C)C(=O)Oc1ccc2c(c1)OCO2`, the logP was 7.39.
The result for `CC(C)N(CCC(CCN1CCCCC1)(C(N)=O)c1ccccc1Cl)C(C)C` (configuration not stated) reads 4.78; that for `CCc1cc2n(c1C(=O)c1ccc(F)cc1)CCC2C(=O)O` (configuration not stated), 3.63.
For `NC(=O)COc1ccc(OCCNCC(O)COc2ccccc2)cc1` (configuration not stated) the value was 1.1.
The result for `CSc1ccc(OCC(OC(=O)n2ccnc2)C(C)(C)C)cc1` (configuration not stated) reads 4.03.
Molecule `O=C(O)COc1cc(Cl)cc(Cl)c1` returned a logP of 2.84.
The result for `O=c1[nH]c(=O)n(C2OC(CO)CC2F)cc1Cl` (configuration not stated) reads -0.28; that for `CC(C)OC(=O)C(C(=O)OC(C)C)=C1SC=CS1`, 3.75; that for `CN(Cc1cccc(Br)c1)N=O`, 1.65.
For `Cc1cc2c(cc1S(N)(=O)=O)S(=O)(=O)NC=N2` the value was -0.32; for `Cc1ccc(C=O)o1`, 0.67; for `CC1=C(C(=O)O)N2C(=O)C(NC(NC(=O)c3nn(-c4ccccc4)c(=O)[nH]c3=O)c3ccc(O)cc3)C2SC1` (configuration not stated), 1.26.
With `Nc1nc(=O)n(C2OC(CO)CC2F)cc1Cl` (configuration not stated), the logP is -0.46.
Consider `CCCn1ccc(=O)c(O)c1CC`, for which the logP is 0.7.
Consider `O=c1[nH]cc(F)c(=O)n1Oc1ccccc1`, for which the logP was 0.8.
The molecule `Cc1c(O)c(=O)ccn1CCCCO` gave a logP of -0.74.
For the molecule `Nc1nc(=O)n(C2OC(CO)CC2F)cc1F` (configuration not stated), the logP was -0.92.
For `CCN1Cn2c(nc3ccccc3c2=O)C1C` (configuration not stated) the value was 1.02.
The result for `Nc1nc(N)c2ncn([C@H]3C=C[C@@H](CO)O3)c2n1` reads -0.48.
The result for `CCCc1c2oc(C(=O)O)cc(=O)c2cc2c(=O)cc(C(=O)O)n(CC)c12` reads 2.22; that for `CCCCSC(=Nc1cccnc1)SCc1ccc(C(C)(C)C)cc1`, 7.
For `CCCC(=NOCC)C1C(=O)CC(C)(C2CC2)OC1=O` (configuration not stated), the logP came out at 3.28.
With `CCCCCCCCO[C@@H]1O[C@H](CO)[C@H](O)[C@H](O)[C@H]1O`, the logP was determined as 1.46.
The result for `O=C1N[C@@H](Cc2ccccc2)C(=O)N[C@H]1Cc1ccccc1` reads 1.59; that for `CCC(CC)(C(=O)NC(N)=O)C(=O)OC(C)C`, 1.99.
Molecule `CSc1nnc(C2CCOCC2)c(=O)n1N` displayed a lipophilicity (logP) of 1.07.
The result for `O=C1CNC(=O)N1Cc1ccccc1` reads 0.82; that for `CNC(=O)Oc1cc(C)c(N(C)C)c(C)c1`, 2.56.
`N#CCCO` came in with a logP of -0.94.
For `Clc1ccc(-c2c(Cl)ccc(Cl)c2Cl)cc1Cl` the value was 6.22; for `CCc1nc2cccc(C)n2c(=O)c1C`, 1.87.
For `CC(N)C(=O)O` (configuration not stated) the value was -2.85; for `COc1ccc(-c2nc3ncc(N)cc3[nH]2)c(OC)c1`, 1.62.
The result for `CCOC(=O)C1=CNC2CCCCN2C1=O` (configuration not stated) reads 0.57.
Take `Cc1nc2ccccn2c(=O)c1C`: the logP stood at 1.
The result for `CCCC(=O)OCC1OC(n2cc(F)c(=O)[nH]c2=O)CC1OC(=O)CCC` (configuration not stated) reads 1.9.
In turn, `CN(C)CC/C=C1\c2ccccc2COc2ccccc21` yielded a logP of 4.29.
The result for `CCOP(=O)(OCC)SCS(=O)(=O)C(C)(C)C` reads 2.76.
For `Nc1cc(Cl)ccc1Cl` the value was 2.75.
The result for `CCCCN(C)C(=O)c1cccc(Oc2ccccc2)c1` reads 3.89; that for `CC(C)(CN1CCCCC1)C(=O)c1ccccc1`, 3.78.
Regarding `NC(=O)c1cnc2n(c1=O)CCCC2`, the logP is -0.38.
`Cc1ccc(Cl)c(NS(=O)(=O)c2nc(C)n(-c3ccccc3)n2)c1Cl` registered a logP of 4.4.
For `COc1cc(C(N)=O)ccc1-c1cn2cccnc2n1` the value was 0.7; for `S=C=Nc1cccc(Cl)c1`, 3.36.
For `Nc1nc(NCC(O)CO)c(Cl)nc1[N+](=O)[O-]` (configuration not stated) the value was -0.22.
The result for `CCCCCCOc1ccc(CC(=O)O)cc1` reads 3.96.
Molecule `OC(Cn1ccnc1)(c1ccccc1)c1ccc(Br)cc1` (configuration not stated) had a logP of 3.35.
In the case of `Cc1ccc2nc3c(c(=O)n2c1)CCC3`, the logP was found to be 1.63.
The result for `CC(C)c1ccc(OCC(OC(=O)n2ccnc2)C(C)(C)C)cc1` (configuration not stated) reads 4.77.
The molecule `O=CNCC#CCC(NC(=O)C(Cc1ccc2ccccc2c1)Cc1cccc2ccccc12)C(=O)NC(CC1CCCCC1)C(O)CC(=O)NCCN1CCOCC1` (configuration not stated) gave a logP of 5.44.
The result for `NC(=O)NCCCCn1nc(-c2ccccc2)ccc1=O` reads 1.21; that for `CC1(C)S[C@@H]2[C@H](NC(=O)[C@H](N)c3ccc(O)cc3)C(=O)N2[C@H]1C(=O)O`, 0.87; that for `CCOC(=O)NC1=NCC(c2cccc(F)c2)N1C` (configuration not stated), 1.84.
Turning to `ClC(Br)Br`, the logP was determined as 2.16.
The result for `Nc1ccc(S(=O)(=O)N2C(=O)NC(=O)C2(c2ccccc2)c2ccccc2)cc1` reads 3.27.
`O=[N+]([O-])c1cccc(S(=O)(=O)[O-])c1.[Na+]` showed a logP of -2.61.
For `Cc1ccccc1C(=O)CCN1CCCCC1` the value was 3.54.
The molecule `CN(C)[C@@H]1C(O)=C(C(N)=O)C(=O)[C@@]2(O)C(O)=C3C(=O)c4c(O)cccc4[C@@](C)(O)[C@H]3[C@H](O)[C@@H]12` returned a logP of -0.9.
For `Cc1ccc(C)c(C(=O)NS(=O)(=O)c2ccc(N)cc2)c1` the value was 2.19; for `CC(C)(C)C(COc1ccccc1)OC(=S)n1ccnc1` (configuration not stated), 4.27; for `Nc1c(Cl)cccc1Cl`, 2.76.
For `Nc1ccc(S(=O)(=O)c2c(O)cc(O)cc2O)cc1` the value was 1.53; for `COP(=S)(OC)Oc1cc(Cl)c(Cl)cc1Cl`, 4.88.

In general, logP refers to the decadic logarithm of the partition coefficient of the neutral form, usually between octanol and water. Lower therefore signals lower lipophilicity.
